# Assay results: US12042483B2, “Prophylactic and therapeutic drug for nonalcoholic fatty liver disease” (Kowa Company, Ltd., priority 2017, dated 2024)
# How the values were obtained:
# Format in all cases: in vivo
# [1] = system: NASH-HCC mouse; experiment: Lipid droplet size in hepatocytes, NASH-HCC mouse model (Example 1, Compound 1 with tofogliflozin); details: 3 weeks, control 1.17, not significant vs control
# Description: A NASH-HCC mouse is a model animal that develops liver cirrhosis from fatty liver via NASH when it is fed with a high fat diet, and subsequently develops hepatocellular carcinoma (Non-Patent Document 9). The effect of compound 1 combined with tofogliflozin was examined using the NASH-HCC mouse model. NASH-HCC mice were prepared with reference to Non-Patent Document 9, and were used for this experiment. Specifically, male C57BL/6J mice were subcutaneously administered 200 μg of streptozotocin on the second day after birth. The mice were fed ad libitum with a high-fat diet (HFD-32, Clea Japan, Inc.) for 2 weeks starting from 4-week-old. The mice were separated into four groups as described in below 2) and were administered drugs from 6-week-old to 9-week-old as described in below 3). Daily food consumption of the mice in each group were measured while the drugs were administered so that the mice of all groups were fed with the same amount of food as those for the control group. […] Using the specimens, the lipid droplet size in hepatocyte was analyzed by image analysis software Image J. The area of 6000 to 10,000 lipid droplets was measured in each specimen. The median of the lipid droplet area was calculated for each mouse and then the median and quartile were calculated for each group based on the median for each mouse in the group. […]
# [2] = system: NASH-HCC mouse; experiment: Ballooning of hepatocytes score, NASH-HCC mouse model (Example 1, Compound 1 with tofogliflozin); details: 3 weeks, group mean of scores 0-2, control 1.33, not significant vs control
# Description: A NASH-HCC mouse is a model animal that develops liver cirrhosis from fatty liver via NASH when it is fed with a high fat diet, and subsequently develops hepatocellular carcinoma (Non-Patent Document 9). The effect of compound 1 combined with tofogliflozin was examined using the NASH-HCC mouse model. NASH-HCC mice were prepared with reference to Non-Patent Document 9, and were used for this experiment. Specifically, male C57BL/6J mice were subcutaneously administered 200 μg of streptozotocin on the second day after birth. The mice were fed ad libitum with a high-fat diet (HFD-32, Clea Japan, Inc.) for 2 weeks starting from 4-week-old. […] Daily food consumption of the mice in each group were measured while the drugs were administered so that the mice of all groups were fed with the same amount of food as those for the control group. […] Using the specimens, the lipid droplet size in hepatocyte was analyzed by image analysis software Image J. The area of 6000 to 10,000 lipid droplets was measured in each specimen. The median of the lipid droplet area was calculated for each mouse and then the median and quartile were calculated for each group based on the median for each mouse in the group. […] Ballooning of hepatocytes in each mouse was scored under blind conditions according to the following criteria (Kleiner et al., Hepatology 41, 1313-21, 2005). […]
# [3] = system: NASH-HCC mouse; experiment: Ballooning of hepatocytes score, NASH-HCC mouse model (Example 2, Compound 1 with ipragliflozin); details: 3 weeks, group mean of scores 0-2, control 1.50, not significant vs control
# Description: Ballooning of hepatocytes in each mouse was scored under blind conditions according to the following criteria (Kleiner et al., Hepatology 41, 1313-21, 2005). No balloon cells: 0 Balloon cell is rare (Few balloon cells): 1 Many Balloon cells or prominent (Ballooning): 2 Then, the mean value of the scores (ballooning score) was calculated in each group and the values were shown (FIG. 2). Statistical processing was performed using statistical software EZR, which extends the functions of R and R commander. The software is distributed free of charge on the website of Jichi Medical University Saitama Medical Center (Bone Marrow Transplantation (2013) 48, 452-458). The Steel test (N=5 to 7) was performed using EZR, the drug administration group was labeled with the mark * in figures when the group had the significant difference at p<0.05 with respect to the control group, and labeled with the mark ** when the group had the significant difference at p<0.01. The effect of Compound 1 combined with ipragliflozin was examined in NASH-HCC mice (Non-Patent Document 9). NASH-HCC mice were prepared in the same manner as in 1) of Example 1, and were used for this experiment. […]
# [4] = 0.1 mg/kg Compound 1, oral once a day
# [5] = 10 mg/kg tofogliflozin, oral once a day
structure (smiles),measurement,setting,value
"CC[C@@H](Oc1cccc(CN(CCCOc2ccc(OC)cc2)c2nc3ccccc3o2)c1)C(=O)O [Compound 1, (R)-2-[3-[[N-(benzoxazol-2-yl)-N-3-(4-methoxyphenoxy)propyl]aminomethyl]phenoxy]butyric acid]",median of lipid droplet size,[1]; [4],1.00 μm^2
same,ballooning score,[2]; [4],0.60
same,ballooning score,[3]; [4],1.35
"OC[C@H]1O[C@@H](c2ccc(F)c(Cc3cc4ccccc4s3)c2)[C@H](O)[C@@H](O)[C@@H]1O [ipragliflozin, (1S)-1,5-anhydro-1-C-{3-[(1-benzothiophen-2-yl)methyl]-4-fluorophenyl}-D-glucitol]",ballooning score,"[3]; 3 mg/kg ipragliflozin, oral once a day",0.88
"CCc1ccc(Cc2ccc3c(c2)[C@]2(OC3)O[C@H](CO)[C@@H](O)[C@H](O)[C@H]2O)cc1 [tofogliflozin, (1S,3′R,4'S,5'S,6′R)-6-[(4-ethylphenyl)methyl]-6′-(hydroxymethyl)-3′,4′,5′,6′-tetrahydro-3H-spiro[2-benzofuran-1,2′-pyran]-3′,4′,5′-triol]",median of lipid droplet size,[1]; [5],1.00 μm^2
same,ballooning score,[2]; [5],0.71
